Measured values from patent US7183288B2, “Amide derivatives as glycogen synthase kinase 3-β inhibitors” (priority 2001, dated 2007).

Tested on: not given
Test: not given
Settings: not given
`N#Cc1ccc(Nc2ncccc2C(N)=O)cc1OCc1ccccc1` [Compound 1, 2-(3-benzyloxy-4-cyano-phenylamino)-nicotinamide] gave a melting point of 232 °C.

Biological target: GSK3β (Homo sapiens, UniProt P49841)
Sequence (P49841 whole entry, species assumed): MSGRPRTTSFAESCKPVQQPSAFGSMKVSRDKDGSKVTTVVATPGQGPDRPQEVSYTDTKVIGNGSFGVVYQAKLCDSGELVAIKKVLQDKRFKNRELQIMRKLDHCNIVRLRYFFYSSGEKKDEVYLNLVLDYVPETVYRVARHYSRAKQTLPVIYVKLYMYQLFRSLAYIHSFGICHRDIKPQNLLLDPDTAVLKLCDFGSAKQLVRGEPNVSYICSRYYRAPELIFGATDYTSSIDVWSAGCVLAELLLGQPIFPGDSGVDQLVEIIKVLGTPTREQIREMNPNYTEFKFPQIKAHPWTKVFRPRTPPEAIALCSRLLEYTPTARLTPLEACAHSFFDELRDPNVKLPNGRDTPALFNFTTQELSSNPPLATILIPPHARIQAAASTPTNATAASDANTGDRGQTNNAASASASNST
Test: GSK3beta assay (SPA, biotinylated phosphorylated CREB peptide, ATP-P33)
Format: biochemical
Settings: -log IC50 (M); 19 nM GSK3β, 5 μM biotinylated phosphorylated CREB peptide, 1 μM ATP, 25° C., one hour
Protocol: GSK3beta assays were performed at 25° C. in a 100 μl reaction volume of 25 mM Tris (pH 7.4) containing 10 mM MgCl2, 1 mM DTT, 0.1 mg/ml BSA, 5% glycerol and containing 19 nM GSK3β, 5 μM biotinylated phosphorylated CREB peptide, 1 μM ATP, 2 nM ATP-P^33 and a suitable amount of a test compound of formula (I) or (I′). After one hour, the reaction was terminated by adding 70 μl of Stop mix (1 mM ATP, 18 mg/ml streptavidin coated PVT SPA bead pH 11.0). The beads to which the phosphorylated CREB peptide is attached were allowed to settle for 30 minutes and the radioactivity of the beads was counted in a microtiterplate scintillation counter and compared with the results obtained in a control experiment (without the presence of a test compound) in order to determine the percentage of GSK3β inhibition. The IC50 value, i.e. the concentration (M) of the test compound at which 50% of GSK3β is inhibited, was calculated from the dose response curve obtained by performing the above-described GSK3β assay in the presence of different amounts of the test compound.
In the case of `N#Cc1ccc(Nc2nccc(C(N)=O)n2)cc1OCc1ccccc1` [Compound 2, 2-[[4-cyano-3-(phenylmethoxy)phenyl]amino]-4-pyrimidinecarboxamide], the IC50 is reported as 5.01e-08 M.
Work on `CNC(=O)c1ccnc(Nc2ccc(C#N)c(OCc3ccccc3)c2)n1` [Compound 3] yielded an IC50 of 5.5e-08 M.
`CN(C)S(=O)(=O)Nc1cccc(COc2cc(Nc3nccc(C(N)=O)n3)ccc2C#N)c1` [Compound 8] showed an IC50 of 2.09e-08 M.
Compound `N#Cc1ccc(Nc2nccc(C(N)=O)n2)cc1OCc1cc(C(F)(F)F)cc(C(F)(F)F)c1` [Compound 9] has an IC50 of 3.8e-07 M.
`Cc1cc(C)cc(COc2cc(Nc3nccc(C(N)=O)n3)ccc2C#N)c1` [Compound 10] showed an IC50 of 1.1e-07 M.
With `N#Cc1ccc(Nc2nccc(C(N)=O)n2)cc1OCCN1CCOCC1` [Compound 11] the IC50 was 2.63e-07 M.
Compound `CN(C)CCOc1cc(Nc2nccc(C(N)=O)n2)ccc1C#N` [Compound 12] has an IC50 of 8.91e-07 M.
`COc1ccc(COc2cc(Nc3nccc(C(N)=O)n3)ccc2C#N)cc1` [Compound 13, 2-[[4-cyano-3-[(4-methoxyphenyl)methoxy]phenyl]amino]-4-pyrimidinecarboxamide] showed an IC50 of 5.25e-08 M.
Work on `N#Cc1ccc(Nc2nccc(C(N)=O)n2)cc1OCCC1COc2ccccc2O1` (centres unmarked) [Compound 14] yielded an IC50 of 1.38e-07 M.
In the case of `N#Cc1ccc(Nc2nccc(C(N)=O)n2)cc1O/C=C/c1ccccc1` [Compound 15], the IC50 is reported as 1.32e-07 M.
Work on `CC(COc1cc(Nc2nccc(C(N)=O)n2)ccc1C#N)Oc1ccc(F)cc1` (centres unmarked) [Compound 16, 2-[[4-cyano-3-[2-(4-fluorophenoxy)propoxy]phenyl]amino]-4-pyrimidinecarboxamide] yielded an IC50 of 3.89e-08 M.
Work on `N#Cc1ccc(Nc2nccc(C(N)=O)n2)cc1OCCOc1ccc(F)cc1F` [Compound 17] yielded an IC50 of 2.45e-07 M.
`N#Cc1ccc(Nc2nccc(C(N)=O)n2)cc1OCCCc1ccccc1` [Compound 18] showed an IC50 of 5.75e-08 M.
`N#Cc1ccc(Nc2nccc(C(N)=O)n2)cc1OCc1nc2ccccc2s1` [Compound 19] showed an IC50 of 4.57e-07 M.
`N#Cc1ccc(Nc2nccc(C(N)=O)n2)cc1OCc1ccc2ccccc2n1` [Compound 21] gave an IC50 of 2.51e-08 M.
Work on `N#Cc1ccc(Nc2nccc(C(N)=O)n2)cc1OCC1CC(c2cccnc2)=NO1` (centres unmarked) [Compound 22] yielded an IC50 of 2.34e-07 M.
With `N#Cc1ccc(Nc2nccc(C(N)=O)n2)cc1OCc1cccc2ccccc12` [Compound 23] the IC50 was 8.13e-08 M.
In the case of `CCn1ccnc1COc1cc(Nc2nccc(C(N)=O)n2)ccc1C#N` [Compound 24], the IC50 is reported as 4.79e-08 M.
Work on `NC(=O)c1ccnc(Nc2cccc(OCc3ccccc3)c2)n1` [Compound 25] yielded an IC50 of 9.12e-08 M.
`CCc1noc(COc2cc(Nc3nccc(C(N)=O)n3)ccc2C#N)n1` [Compound 26] gave an IC50 of 4.37e-07 M.
Work on `N#Cc1ccc(Nc2nccc(C(N)=O)n2)cc1` [Compound 29] yielded an IC50 of 1.48e-07 M.
Work on `COc1ccccc1COc1cc(Nc2nccc(C(N)=O)n2)ccc1C#N` [Compound 30, 2-[[4-cyano-3-[(2-methoxyphenyl)methoxy]phenyl]amino]-4-pyrimidinecarboxamide] yielded an IC50 of 4.68e-08 M.
Compound `N#Cc1ccc(COc2cc(Nc3nccc(C(N)=O)n3)ccc2C#N)cc1` [Compound 31] has an IC50 of 9.55e-08 M.
Work on `Cc1cccc(COc2cc(Nc3nccc(C(N)=O)n3)ccc2C#N)c1` [Compound 32] yielded an IC50 of 6.46e-08 M.
Work on `Cc1ccccc1COc1cc(Nc2nccc(C(N)=O)n2)ccc1C#N` [Compound 34] yielded an IC50 of 1.78e-07 M.
`Cc1ccc(COc2cc(Nc3nccc(C(N)=O)n3)ccc2C#N)cc1` [Compound 35] showed an IC50 of 1.55e-07 M.
`N#Cc1ccc(Nc2nccc(C(N)=O)n2)cc1OCc1cccc(C(F)(F)F)c1` [Compound 36] gave an IC50 of 4.07e-07 M.
Compound `N#Cc1ccc(Nc2nccc(C(N)=O)n2)cc1OCc1ccc2ccccc2c1` [Compound 38, 2-[[4-cyano-3-(2-naphthalenylmethoxy)phenyl]amino]-4-pyrimidinecarboxamide] has an IC50 of 5.5e-08 M.
